In patent US20250360114A1, “INTRAVENOUS RIFABUTIN FORMULATION AND METHODS OF MAKING” (BIOVERSYS AG, priority 2024, published 2025):

Key:
[1] = Solubility of rifabutin in alkanes; format: physicochemical
[2] = Sub-visible particle test (10 mg/mL in 0.9% saline, particle counter); format: physicochemical
Description: As these particle forming impurities are not described in the current pharmacopeial analytical methods, a new testing method was developed which is described in the methods below. In brief, rifabutin powder is dissolved in a mixture of dimethyl isosorbide, acetic acid and water. Subsequently, the obtained solution is diluted in 0.9% saline to a final concentration of 10 mg/mL and sub-visible particles are determined. The established limits for this test are: (1) not more than 12.5 particles/mL greater than 10 μm in diameter, and (2) not more than 3 particles/mL greater than 25 μm in diameter. Considering that current concentrations used for the intravenous administration of rifabutin are well below 10 mg/mL, these limits are much more stringent than the current pharmacopeial limits.
About 400 mg of rifabutin is dissolved in 2 mL of a mixture of isosorbide dimethyl ether (DMI) and acetic acid in water (40% DMI, 2.4% acetic acid). The obtained solution is filtered through a 0.2 μm Nylon filter and […] of 0.9% saline solution to a final concentration of 10 mg/mL. Solutions are stirred for 15 min on a roller mixer to allow sub-visible particle formation.
Sub-visible particles are determined using a suitable instrument (e.g. PAMAS SVSS particle counter). Particle numbers in the 10 mg/mL solution should be not more than 12.5 particles/mL greater 10 μm and not more than […] greater 25 μm to pass the test.

[3] = Method 1, Example 1 (pentane Soxhlet extraction)
[4] = Method 2, Example 2 (pentane / silica gel columns, acetone elution)
[5] = Method 3, Example 3 (dissolved in n-heptane 50° C., filtered)

Row | SMILES | Solubility [1] | Sub-visible particles ≥10 μm [2, 3] [particles/mL] | Sub-visible particles ≥25 μm [2, 3] [particles/mL] | Sub-visible particles ≥10 μm [2, 4] [particles/mL] | Sub-visible particles ≥25 μm [2, 4] [particles/mL] | Sub-visible particles ≥10 μm [2, 5] [particles/mL] | Sub-visible particles ≥25 μm [2, 5] [particles/mL]
1 | CO[C@H]1/C=C/O[C@@]2(C)Oc3c(C)c(O)c4c(c3C2=O)C2=NC3(CCN(CC(C)C)CC3)NC2=C(NC(=O)/C(C)=C\C=C\[C@H](C)[C@H](O)[C@@H](C)[C@@H](O)[C@@H](C)[C@H](OC(C)=O)[C@@H]1C)C4=O [Rifabutin] | low solubility |  |  |  |  |  | 
2 | CO[C@H]1/C=C/O[C@@]2(C)Oc3c(C)c(O)c4c(c3C2=O)C2=NC3(CCN(CC(C)C)CC3)NC2=C(NC(=O)/C(C)=C\C=C\[C@H](C)[C@H](O)[C@@H](C)[C@@H](O)[C@@H](C)[C@H](OC(C)=O)[C@@H]1C)C4=O [original, rifabutin] |  | 138.3 | 16.3 | 1804.0 | 98.7 | 1804.0 | 98.7
3 | CO[C@H]1/C=C/O[C@@]2(C)Oc3c(C)c(O)c4c(c3C2=O)C2=NC3(CCN(CC(C)C)CC3)NC2=C(NC(=O)/C(C)=C\C=C\[C@H](C)[C@H](O)[C@@H](C)[C@@H](O)[C@@H](C)[C@H](OC(C)=O)[C@@H]1C)C4=O [purified, rifabutin] |  | 8.4 | 0.4 | 2.6 | 0.0 | 7.1 | 0.2
